In paper PMC8310135 (Viruses, 2021):
Counter-ions that a name gives are not always drawn. Like-named read-outs stand apart in the source and are kept apart here.

What was measured:
in vitro = details: human; for CC50: CC50 (50% cell cytotoxicity concentration)
rLUJV/ZsG = experiment: microbe, parasite or virus in culture; assay type: cell-based, Lujo virus
[1] = Mammarenavirus lujoense, Huh-7, 50 nM, read-out: Relative ZsG (%) Mean
[2] = Mammarenavirus lujoense, Huh-7, 500 nM, read-out: Relative ZsG (%) Mean
[3] = Mammarenavirus lujoense, Huh-7, 5000 nM, read-out: Relative ZsG (%) Mean
[4] = Mammarenavirus lujoense, Huh-7, read-out: Relative ZsG (%) Mean

Compound | viability at 0.05 µM (in vitro) [%] | viability at 0.5 µM (in vitro) [%] | viability at 5 µM (in vitro) [%] | activity at 0.05 µM (rLUJV/ZsG; [1]) [%] | activity at 0.5 µM (rLUJV/ZsG; [2]) [%] | activity at 5 µM (rLUJV/ZsG; [3]) [%] | CC50 (in vitro) [µM] | EC50 (rLUJV/ZsG; Mammarenavirus lujoense, Huh-7, read-out: EC50 (concentration inhibiting ZsG expression by 50%)) [µM] | EC50 (rLUJV/ZsG; read-out: EC50 (concentration inhibiting ZsG expression by 50%)) [µM] | activity at 0.05 µM (rLUJV/ZsG; [4]) [%] | activity at 0.5 µM (rLUJV/ZsG; [4]) [%] | activity at 5 µM (rLUJV/ZsG; [4]) [%]
Nc1nc(Cl)nc2c1ncn2[C@@H]1O[C@H](CO)[C@@H](O)[C@H]1O [2-chloroadenosine] | 98 | 105 | 103 | 124 | 133 | 99 |  |  |  |  |  | 
C[C@@]1(O)[C@H](O)[C@@H](CO)O[C@H]1n1ccc(N)nc1=O [2ʹ-C-methylcytidine] | 102 | 104 | 99 | 124 | 144 | 103 |  |  |  |  |  | 
C[C@@]1(O)[C@H](O)[C@@H](CO)O[C@H]1n1ccc(=O)[nH]c1=O [2ʹ-C-methyluridine] | 102 | 100 | 97 | 132 | 142 | 126 |  |  |  |  |  | 
CO[C@@H]1[C@H](O)[C@@H](CO)O[C@H]1n1ccc(N)nc1=O [2ʹ-O-methylcytidine] | 98 | 103 | 100 | 118 | 127 | 114 |  |  |  |  |  | 
CO[C@@H]1[C@H](O)[C@@H](CO)O[C@H]1n1ccc(=O)[nH]c1=O [2ʹ-O-methyluridine] | 97 | 100 | 96 | 122 | 130 | 110 |  |  |  |  |  | 
O=C1C=CN([C@@H]2O[C@H](CO)[C@@H](O)[C@H]2O)C(=O)C1 [3-deazauridine] | 103 | 96 | 99 | 108 | 105 | 111 |  |  |  |  |  | 
Nc1ncn([C@@H]2O[C@H](CO)[C@@H](O)[C@H]2O)c(=O)n1 [5-azacytidine] | 96 | 102 | 102 | 90 | 112 | 104 |  |  |  |  |  | 
[N-]=[N+]=Nc1cn([C@@H]2O[C@H](CO)[C@@H](O)[C@H]2O)c(=O)[nH]c1=O [5-azidouridine] | 104 | 100 | 104 | 121 | 119 | 113 |  |  |  |  |  | 
O=c1[nH]c(=O)n([C@@H]2O[C@H](CO)[C@@H](O)[C@H]2O)cc1Br [5-bromouridine] | 97 | 102 | 100 | 134 | 131 | 106 |  |  |  |  |  | 
O=c1[nH]c(=O)n([C@@H]2O[C@H](CO)[C@@H](O)[C@H]2O)cc1Cl [5-chlorouridine] | 100 | 103 | 99 | 122 | 142 | 103 |  |  |  |  |  | 
O=c1[nH]c(=O)n([C@@H]2O[C@H](CO)[C@@H](O)[C@H]2O)cc1F [5-fluorouridine] | 97 | 100 | 103 | 94 | 51 | 19 |  |  |  |  |  | 
Cc1cn([C@@H]2O[C@H](CO)[C@@H](O)[C@H]2O)c(=O)nc1N [5-methylcytidine] | 96 | 97 | 98 | 122 | 129 | 108 |  |  |  |  |  | 
O=c1cnn([C@@H]2O[C@H](CO)[C@@H](O)[C@H]2O)c(=S)[nH]1 [6-aza-2-thiouridine] | 104 | 96 | 103 | 134 | 139 | 112 |  |  |  |  |  | 
O=c1cnn([C@@H]2O[C@H](CO)[C@@H](O)[C@H]2O)c(=O)[nH]1 [6-azauridine] | 98 | 103 | 97 | 95 | 87 | 78 |  |  |  |  |  | 
Nc1ncnc2c1nnn2[C@@H]1O[C@H](CO)[C@@H](O)[C@H]1O [8-azaadenosine] | 98 | 103 | 47 | 118 | 121 | 6 |  |  |  |  |  | 
[N-]=[N+]=Nc1nc2c(N)ncnc2n1[C@@H]1O[C@H](CO)[C@@H](O)[C@H]1O [8-azidoadenosine] | 104 | 87 | 32 | 90 | 72 | 6 |  |  |  |  |  | 
COc1c(-c2ccc3cc(NS(C)(=O)=O)ccc3c2)cc(-n2ccc(=O)[nH]c2=O)cc1C(C)(C)C [ABT-333] | 99 | 96 | 104 | 131 | 111 | 129 |  |  |  |  |  | 

Compound | viability at 0.05 µM (in vitro) [%] | viability at 0.5 µM (in vitro) [%] | viability at 5 µM (in vitro) [%] | activity at 0.05 µM (rLUJV/ZsG; [1]) [%] | activity at 0.5 µM (rLUJV/ZsG; [2]) [%] | activity at 5 µM (rLUJV/ZsG; [3]) [%] | CC50 (in vitro) [µM] | EC50 (rLUJV/ZsG; Mammarenavirus lujoense, Huh-7, read-out: EC50 (concentration inhibiting ZsG expression by 50%)) [µM] | EC50 (rLUJV/ZsG; read-out: EC50 (concentration inhibiting ZsG expression by 50%)) [µM] | activity at 0.05 µM (rLUJV/ZsG; [4]) [%] | activity at 0.5 µM (rLUJV/ZsG; [4]) [%] | activity at 5 µM (rLUJV/ZsG; [4]) [%]
COc1ccc(-c2ccc3c(N4CCOC[C@@H]4C)nc(N4CCOC[C@@H]4C)nc3n2)cc1CO [AZD8055] | 86 | 52 | 45 | 48 | 7 | 3 |  |  |  |  |  | 
CC(C)(C)C(=O)OCOP(=O)(COCCn1cnc2c(N)ncnc21)OCOC(=O)C(C)(C)C [Adefovir dipivoxil] | 123 | 94 | 54 | 70 | 38 | 24 |  |  |  |  |  | 
CCCCc1oc2ccccc2c1C(=O)c1cc(I)c(OCCN(CC)CC)c(I)c1 [Amiodarone] |  |  |  | 80 | 60 | 3 | 13.6 ± 1.51 |  |  |  |  | 
N#CC1(c2ccc(NC(=O)c3cccnc3NCc3ccncc3)cc2)CCCC1 [Apatinib] | 113 | 119 | 95 | 91 | 67 | 47 |  |  |  |  |  | 
CCOC(=O)c1c(CSc2ccccc2)n(C)c2cc(Br)c(O)c(CN(C)C)c12 [Arbidol] | 135 | 139 | 109 | 77 | 65 | 40 |  |  |  |  |  | 
O=C1CCc2ccc(OCCCCN3CCN(c4cccc(Cl)c4Cl)CC3)cc2N1 [Aripiprazole] | 124 | 126 | 59 | 71 | 81 | 16 |  |  |  |  |  | 
O=C1C(O)=C([C@H]2CC[C@H](c3ccc(Cl)cc3)CC2)C(=O)c2ccccc21 [Atovaquone] | 129 | 134 | 115 | 108 | 90 | 74 |  |  |  |  |  | 
Nc1ncnc2c([C@@H]3N[C@H](CO)[C@@H](O)[C@H]3O)c[nH]c12 [BCX-4430] | 99 | 97 | 101 | 103 | 132 | 99 |  |  |  |  |  | 
CC(C)C(=O)OC[C@@]1(N=[N+]=[N-])O[C@@H](n2ccc(N)nc2=O)[C@H](OC(=O)C(C)C)[C@@H]1OC(=O)C(C)C [Balapiravir (R1626), Balapiravir] | 104 | 104 | 99 | 139 | 81 | 122 |  |  |  |  |  | 
COC(=O)C1=C(C)NC(C)=C(C(=O)OC2CCCN(Cc3ccccc3)C2)C1c1cccc([N+](=O)[O-])c1 (stereo not shown) [Benidipine] | 126 | 129 | 107 | 90 | 81 | 61 |  |  |  |  |  | 
CN1[C@@H]2CC[C@H]1C[C@@H](OC(c1ccccc1)c1ccccc1)C2 [Benztropine mesylate] | 126 | 130 | 108 | 110 | 90 | 36 | > 25 | 5.14 ± 1.52 | 5.14 ± 1.52 |  |  | 
CN1CCC[C@@H]1CCO[C@](C)(c1ccccc1)c1ccc(Cl)cc1 [Clemastine fumarate] | 115 | 116 | 107 | 95 | 81 | 6 |  |  |  |  |  | 
CC(C)/N=c1\cc2n(-c3ccc(Cl)cc3)c3ccccc3nc-2cc1Nc1ccc(Cl)cc1 [Clofazimine] | 120 | 125 | 102 | 88 | 75 | 52 |  |  |  |  |  | 
CN(C)CCCN1c2ccccc2CCc2ccc(Cl)cc21 [Clomipramine HCL] | 97 | 97 | 98 | 129 | 103 | 12 |  |  |  |  |  | 
CC(C)(C)c1nc(-c2cccc(NS(=O)(=O)c3c(F)cccc3F)c2F)c(-c2ccnc(N)n2)s1 [Dabrafenib] | 119 | 117 | 68 | 87 | 79 | 22 |  |  |  |  |  | 
CNCC[C@H](Oc1cccc2ccccc12)c1cccs1 [Duloxetine HCL] | 104 | 109 | 76 |  |  |  |  |  |  | 103 | 74 | 4
C#Cc1cccc(Nc2ncnc3cc(OCCOC)c(OCCOC)cc23)c1 [Erlotinib] | 127 | 126 | 110 | 82 | 66 | 65 |  |  |  |  |  | 
